PubChem BioAssay (NCI)
Where “and” joins values, the source holds several entries; their conditions need not be identical. Identical values can stand only once.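 The compound was tested at five concentrations on cells cultured in 96-well plates, with a 48-hour exposure period. At the GI50, growth is halved. TGI: concentration producing complete growth inhibition.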

Experiments:
Assay in all cases: DTP human tumour cell line panel, 48 h
CCRF-CEM leukemia = system: CCRF-CEM leukemia
COLO 205 colon = system: COLO 205 colon
HCT-116 colon = system: HCT-116 colon
HCT-15 colon = system: HCT-15 colon
HT29 colon = system: HT29 colon
MALME-3M melanoma = system: MALME-3M melanoma
NCI-H23 lung = system: NCI-H23 lung
SF-295 CNS = system: SF-295 CNS
SK-MEL-2 melanoma = system: SK-MEL-2 melanoma
U251 CNS = system: U251 CNS

SMILES | TGI (CCRF-CEM leukemia) | TGI (COLO 205 colon) [µM] | TGI (HCT-116 colon) [µM] | TGI (HCT-15 colon) [µM] | TGI (HT29 colon) [µM] | TGI (MALME-3M melanoma) [µM] | TGI (NCI-H23 lung) [µM] | TGI (SF-295 CNS) [µM] | TGI (SK-MEL-2 melanoma) [µM] | TGI (U251 CNS) [µM] | GI50 (CCRF-CEM leukemia) [µM] | GI50 (HCT-15 colon) [µM] | GI50 (COLO 205 colon) [µM] | GI50 (HCT-116 colon) [µM] | GI50 (HT29 colon) [µM] | GI50 (MALME-3M melanoma) [µM] | GI50 (NCI-H23 lung) [µM] | GI50 (SF-295 CNS) [µM] | GI50 (SK-MEL-2 melanoma) [µM] | GI50 (U251 CNS) [µM]
O=C(O)CC(C(=O)O)C1c2ccccc2-c2ccccc21 (stereo unspecified) | > 100 µM | > 100 | > 100 | > 100 | > 100 | > 100 | > 100 | > 100 | > 100 | > 100 |  |  |  |  |  |  |  |  |  | 
O=S(=O)(O)c1cc(N=Nc2cc(S(=O)(=O)O)c3ccccc3c2O)ccc1/C=C/c1ccc(N=Nc2cc(S(=O)(=O)O)c3ccccc3c2O)cc1S(=O)(=O)O | 42.5 µM and 92.7 µM | > 380 | > 433 | > 727 | > 740 | > 494 | 975 | > 731 | > 620 | > 1000 | 32.5 | 186 |  |  |  |  |  |  |  | 
Nc1cc(S(=O)(=O)O)cc2cc(S(=O)(=O)O)c(N=Nc3ccc(-c4ccc(N=Nc5c(S(=O)(=O)O)cc6cc(S(=O)(=O)O)cc(N)c6c5O)cc4)cc3)c(O)c12 | > 100 µM | > 100 | > 100 | > 100 | > 100 | > 100 | > 100 | > 100 | > 100 | > 100 |  |  |  |  |  |  |  |  |  | 
C=C1C(=O)CCC1C(=O)O (stereo unspecified) | > 100 µM | > 100 | > 100 | > 100 | > 100 | > 100 | > 100 | > 100 | > 100 | > 100 |  |  |  |  |  |  |  |  |  | 
C=C(C)C(=O)OC1C(C(C)CCCO)=C(CO)CC2OC(=O)C(=C)C21 (stereo unspecified) | > 100 µM | 29.3 | 32.2 | 26.9 | 45.9 | 17.8 | 43 | > 100 | 61.7 | 45.3 |  |  |  |  |  |  |  |  |  | 
COc1ccc(-c2nn(-c3ccc(NC(=O)Nc4ccc(Cl)c(Cl)c4)cc3)cc2-c2ccncc2)cc1Cl | > 100 µM | 5.27 | 11.7 | > 100 | > 100 | 8.47 | > 100 | > 100 | 4.76 | > 100 | 2.09 | 1.7 | 2.19 | 1.65 | 2.55 | 2.47 | 2.22 | 2.21 | 2.02 | 1.36
C=C(C)C1CC2=C(O1)C(=O)c1ccccc1C2=O (stereo unspecified) | 52.7 µM | 37.4 |  | 33.2 | 38.4 |  | 45.1 |  |  | 30.2 |  |  |  |  |  |  |  |  |  | 
C=C1C(=O)OC2/C=C(\C)C(=O)CC3OC(C)(C)OC3(C)CC(OC(=O)/C(C)=C/C)C12 (stereo unspecified) | > 21.8 µM | > 59.7 | > 44.1 | 19.8 | 37.2 | 28 | 57.8 | 98.2 | 82.8 | > 75.2 |  |  |  |  |  |  |  |  |  | 
OC(Cc1ccccc1)(Cc1ccccc1)c1ccccc1 | > 100 µM |  | 35.8 | 50.4 | 34.9 | 27.1 | 38.4 | 34.9 | 29.6 | 32.8 |  |  |  |  |  |  |  |  |  | 
O=C(/C=c1\oc(=O)/c(=C/C(=O)c2ccc(Cl)cc2)oc1=O)c1ccc(Cl)cc1 | > 100 µM | > 100 | > 100 | > 100 | > 100 | > 100 | > 100 | > 100 | > 100 | > 100 |  |  |  |  |  |  |  |  |  | 
CC(C)(C)C1(c2ccc(C3(c4ccccc4)Oc4ccccc4S3)[nH]2)Oc2ccccc2S1 (stereo unspecified) | > 100 µM |  | > 100 | > 100 | > 100 | > 100 | > 100 | > 100 | > 100 | > 100 |  |  |  |  |  |  |  |  |  | 
COc1cc(C(C)(C)C)cc(OC)c1C(O)(c1c(OC)cc(C(C)(C)C)cc1OC)c1c(OC)cc(C(C)(C)C)cc1OC |  | 0.34 | 0.901 |  | 0.877 | 0.683 |  | 0.479 | 0.692 | 1.23 |  |  | 0.188 | 0.249 | 0.224 | 0.234 |  | 0.221 | 0.325 | 0.0636
CCN=C=NCCCN(C)C | > 100 µM | > 100 | > 100 | > 100 | > 100 | > 100 | > 100 | > 100 | > 100 | > 100 |  |  |  |  |  |  |  |  |  | 
O=Nc1ccc(O)c2ncccc12 | > 100 µM | 30.6 | 3.04 | 12.9 | 34.6 | 25.6 | 3.04 | 36 | 6.39 | 14.5 |  |  |  |  |  |  |  |  |  | 
C[N+]1(C)CCOC(O)(c2ccccc2)C1 (stereo unspecified) | > 100 µM | > 100 | > 100 | > 100 | > 100 | > 100 | > 100 | > 100 | > 100 | > 100 |  |  |  |  |  |  |  |  |  | 
Cc1ccc(P(c2ccc(C)cc2)c2ccc(C)cc2)cc1 | 46.5 µM | 44.6 | 28.2 | > 100 | > 100 | 42.4 | > 100 | > 100 | 57.9 | 43 |  |  |  |  |  |  |  |  |  | 
O=[N+]([O-])c1ccc(/C=N\Nc2ccc([N+](=O)[O-])cn2)cc1 | > 100 µM | > 100 | > 100 | > 100 | > 100 | > 100 | > 100 | > 100 | > 100 | > 100 |  |  |  |  |  |  |  |  |  | 
C=C1CC23CCC4C(C)(C(=O)O)CCCC4(C)C2CCC1C3 (stereo unspecified) | > 100 µM | 39.5 | > 100 | > 100 | > 100 | > 100 | > 100 | > 100 | > 100 | > 100 |  |  |  |  |  |  |  |  |  | 
COc1ccc2[nH]c3c([N+](=O)[O-])ccc(Cl)c3c(=O)c2c1 | 10.2 µM | 32.7 | 27.4 | 40.8 | 32.2 | 40.4 | > 52.8 | > 100 | 58.5 | > 64.1 |  |  |  |  |  |  |  |  |  | 
COC1/C=C\OC2(C)Oc3c(C)c(O)c4c(O)c(c(/C=N\OCCCc5ccccc5)c(O)c4c3C2=O)NC(=O)/C(C)=C\C=C/C(C)C(O)C(C)C(O)C(C)C(OC(C)=O)C1C (stereo unspecified) | 6.35 µM | 4.12 | 5.26 | 11 | 11.3 | 12 | 10 | 16.3 | 5.35 | 16 |  |  |  |  |  |  |  |  |  | 
C=C(C)[C@@H]1CC[C@]2(C(=O)Nc3ccccn3)CC[C@]3(C)[C@H](CC[C@@H]4[C@@]5(C)CCCNC(C)(C)[C@@H]5CC[C@]43C)[C@@H]12 | > 100 µM |  |  | 3.09 |  | 2.84 | 3.77 | 3.07 |  |  | 3.02 | 1.61 |  |  |  | 1.44 | 1.85 | 1.68 |  | 
CCN(CC)C(=S)SC(=S)N(CC)CC |  | 45 | > 58.3 | > 100 |  | > 58.4 | > 80.6 | > 100 | > 100 | > 100 |  |  |  |  |  |  |  |  |  | 
CC(=O)c1cccc(Nc2c3ccccc3nc3occc23)c1 | 18.8 µM | 29.1 | 18.4 | > 100 | 8.46 | 27.6 | 18.2 | 44 | 11.4 | > 100 |  |  |  |  |  |  |  |  |  | 
C=C(CN(C)C)C(=O)c1ccc(C)cc1C | 2.14 µM | 11.3 | 13 | 12.5 | 36.6 | 20.2 | 27.3 | 31.6 | 37 | 47.8 |  |  |  |  |  |  |  |  |  | 
CC(C)=CCc1c(O)ccc2c1OC1c3ccc(O)c(CC=C(C)C)c3OCC21 (stereo unspecified) | 43 µM | 33 | 18.3 | 18.1 | > 61.9 | 33.6 | > 55.1 | 24.3 | 34.3 | 21.3 |  |  |  |  |  |  |  |  |  | 
C[C@H](C(=O)N[C@@H](Cc1ccc(-c2ccccc2)cc1)C(=O)NC1CC(C)(C)N(C)C(C)(C)C1)c1ccc(-c2ccccc2)c(F)c1 |  | 2.87 |  | 2.94 |  |  | 3.08 |  | 3.55 |  |  | 1.53 | 1.37 |  |  |  | 1.54 |  | 1.61 | 
